As to `CCCCCOc1ccc(OCC(O)CC#CCCCC(=O)O)cc1` (configuration not stated), the melting point is 58 to 60 °C.

`CCC(Cc1ccc(OC)c(OCCc2ccc(C(F)(F)F)cc2)c1)C(=O)O` (configuration not stated) had a melting point of 64 to 66 °C. In turn, `Cc1ccc(S(=O)(=O)Oc2ccc(S(=O)(=O)c3c(C(C)C)cn4ncccc34)cc2)cc1` had a melting point of 149 °C.

In turn, `CC(C)Cn1nc(-c2ccc(C(F)(F)F)cc2)cc(COS(C)(=O)=O)c1=O` gave a melting point of 123 to 124 °C. Compound `COc1cc(C#N)cc(-c2ccc3c(c2)C(C)(C)OC(=S)N3)c1` gave a melting point of 201 to 202 °C.

`c1cc(C2=NOC(C3CC3)C2)ccn1` (configuration not stated) returned a melting point of 102 to 108 °C. The result for `CC(C)(C)OC(=O)N1CC2CCCCC(C1)C2C(=O)O` (configuration not stated) reads 218 to 222 °C; that for `Cc1nnc2n1-c1ccccc1C(c1ccccc1Cl)=NC2`, 212 to 213 °C.

In turn, `COc1ccc(S(=O)(=O)N2CCc3cccc(-c4ccco4)c32)cc1` displayed a melting point of 177 to 178 °C.

`O=C(Nc1cc(Cl)cc(Cl)c1)c1cc(F)ccc1O`: the melting point was 258 to 260 °C. The result for `O=C1Nc2ccc(C(F)(F)F)cc2C1c1nc(Cl)nc2nn(C3CCCC3)cc12` (configuration not stated) reads greater than 300 °C; that for `CCC12CC(Cl)C3C4CCC(=O)C=C4CCC3C1C(O)CC2=O` (configuration not stated), 169 to 170 °C; that for `Cc1csc(N2CCN(Cc3ccc(C(=O)NCc4ccccc4)cc3)C2=O)n1`, 185 to 186 °C. The result for `CN1C(C)(C)CC2(CC1(C)C)NC(=O)N(CC(O)CN1C(=O)NC3(CC(C)(C)N(C)C(C)(C)C3)C1=O)C2=O` reads 255 to 256 °C; that for `CC(C)(C)c1ccc(OCCCCCCN2CCN(c3nccs3)CC2)cc1`, 30 to 32 °C. `O=c1c(Cc2ccccc2)c2n(c(=O)n1Cc1ccccc1)CCCS2` displayed a melting point of 110 to 112 °C. The result for `Cc1cccc2c(=O)[nH]c(=O)[nH]c12` reads 170 °C; that for `COc1ncncc1[N+](=O)[O-]`, 193 to 195 °C; that for `CC(C)=NN(C)C1=NOCc2ccc(Cl)cc21`, 105 to 106 °C. Next, `CN(c1ccc(Cl)cc1)S(=O)(=O)c1c[nH]cn1`: 217 to 219 °C; `CCOC(=O)COc1cc(O)c(C(=O)CN2Cc3cc(C(N)=S)ccc3C2=O)cc1OCC(=O)OCC`: 142 to 143 °C. Next, `CCC(CCCCCCCCC(C)(C)CO)N1C(=O)c2cccc([N+](=O)[O-])c2C1=O` (configuration not stated): 66 to 68 °C; `CCN1c2ncc(COc3cccc(C(N)=O)c3)cc2C(=O)N(C)c2ccc(Cl)nc21`: 96 to 98 °C; `Cc1oc(-c2ccccc2)nc1COc1cccc(COc2cncc(CC(=O)O)c2)c1`: 158 to 159 °C. `CCC(C)COC(=O)c1ccc(-c2ccc(O)cc2)cc1` (configuration not stated) yielded a melting point of 112 to 113 °C. `CS(=O)c1ccc2c3c(cccc13)C(=O)N2` (configuration not stated) registered a melting point of 178 to 185 °C.

Compound `O=C1c2ccc(Cl)cc2CC1Cl` (configuration not stated) came in with a melting point of 63 to 66 °C. In turn, `CCCCC(CC)n1nnc2c(Nc3c(Cl)cc(OC)cc3OC)nc(C)cc21` (configuration not stated) registered a melting point of 155 to 156 °C. The result for `CC(O)(CCN1CCOCC1)c1ccc(-c2ccc(Cl)cc2)cc1` (configuration not stated) reads 106 to 108 °C.

`CCOC(=O)CCN1CCN(C2=Nc3ccccc3Sc3ccc(Cl)cc32)CC1` came in with a melting point of 79 to 80 °C. The result for `COCCSC(F)(F)C(O)(Cn1cncn1)c1ccc(F)cc1F` (configuration not stated) reads 80 to 81 °C; that for `CCOC(=O)C(C#N)=NOC(=O)OCC(C)C`, 60 to 62 °C. `COc1cc(N)c(Cl)cc1C(=O)NCC1CCN(CCS(=O)(=O)Cc2ccccc2)CC1` yielded a melting point of 220 to 223 °C. Take `O=C(Nc1ccc(C(=O)N2Cc3ccccc3Cc3ccccc32)cc1)c1cccc(Cl)c1Cl`: the melting point is 225 to 230 °C. With `O=C1CNc2cccc(Oc3cc(-c4ccc(C(F)(F)F)cc4)ncn3)c2N1`, the melting point came to 305 °C.

`FC(F)(F)c1ccc(-c2cc(Nc3ccc4ccc(Cl)nc4c3)ncn2)cc1` registered a melting point of 233 °C. In turn, `CCCCCCCCN(C)C(=O)C(C)(C)n1cc(C)c(-c2ccccc2)n1` came in with a melting point of 75 to 78 °C.

`Cc1cc(SCc2cnc(-c3ccc(C(F)(F)F)cc3)nc2C2CC2)ccc1OC(C)(C)C(=O)O` had a melting point of 129 to 131 °C.

`CC(C)C(=O)N(O)C(C)c1cc2ccccc2s1` (configuration not stated) gave a melting point of 132 to 138 °C. The result for `CC(C)(C)C(=O)c1ccc(C(=O)NC(=O)c2ccc(C(=O)C(C)(C)C)cc2)cc1` reads 131 to 132 °C; that for `COc1ccc2c(c1)C(=O)C(=Cc1cccnc1)CO2`, 127 to 131 °C; that for `CCNC1=NS(=O)(=O)c2cccc(F)c21`, 236 to 238 °C. Next, `Nc1nc(/C(=N/OCC(=O)N2CCCCC2)C(=O)O)cs1`: 177 °C; `CCOc1nc(NCc2ccco2)nc(Nc2ccccc2-c2cccnc2)n1`: 90 to 92 °C. The result for `CCCc1cc(Cl)c(O)c2c(C)c(Cc3ccc(OC)cc3)oc12` reads 99 to 100 °C. On to `COc1ccccc1NC(=O)Nc1nc(N2CCOCC2)nc(N(CCC(=O)O)Cc2cccc(C)c2)n1`, for which the melting point was in the range of 101 to 102 °C. `CC(C)(C)c1cc(CCc2ccc(Cl)cc2NC(=O)NC2CCN(Cc3ccccc3)CC2)cc(C(C)(C)C)c1O` yielded a melting point of 155 to 156 °C. The result for `Nc1ccc2ncnc(Nc3cc(Cl)c(Cl)cc3F)c2c1` reads 265 °C. With `CCOC(=O)c1ncn2c1CN(C)C(=S)c1cc(F)ccc1-2`, the melting point is 157 to 159 °C.

The compound `Cc1nc(N2CCN(Cc3ccc(F)cc3)C2=O)sc1C(=O)NCc1cccnc1` came in with a melting point of 177 to 179 °C. For `CCCCCCCCS(=O)(=O)Nc1cc(C(F)(F)F)ccc1Oc1ccccc1C(=O)O`, the melting point lay in the range of 167 to 168 °C.

`CS(=O)(=O)OCCn1c(=NC(=O)C(F)(F)F)sc2cc(OC(F)(F)F)ccc21` came in with a melting point of 145 °C.

On to `Nc1c(C(=O)NC(Cc2ccc(OCc3ccccc3)cc2)C(=O)O)oc2cc(-c3ccc(Cl)cc3)ccc12` (configuration not stated), for which the melting point turned out to be 250 °C. The result for `O=C(NC(CO)(CO)CO)c1ccc(C(=O)NC(CO)(CO)CO)cc1` reads 188 to 190 °C; that for `Cc1cc(C2=NOC(c3cccc(C(F)(F)F)c3)(C(F)(F)F)C2)ccc1Br` (configuration not stated), 84 to 85 °C; that for `O=[N+]([O-])c1ccccc1COc1ccc2ncc3c(c2c1)CCCC3`, 153 to 154 °C. The result for `CC(=O)NC(CCC(=O)c1c(F)cccc1F)c1ccc(Br)cc1` (configuration not stated) reads 162 to 163 °C. The result for `O=CNc1ccc(OCCNCC(O)c2ccc(OCc3ccccc3)cc2)cc1` (configuration not stated) reads 152 °C; that for `O=C(COc1ccon1)NCCO[N+](=O)[O-]`, 67 to 69 °C. `O=c1[nH]ccc2cc3cccnc3n12`: the melting point was 265 to 266 °C. Compound `O=C(CCn1cnc2c(=O)[nH]cnc21)NC(Cc1ccccc1)C(=O)O` (configuration not stated) gave a melting point of 240 to 242 °C. Next, `COC(=O)Nc1nc2cc(C(=NO)c3ccc(F)cc3)ccc2[nH]1`: greater than 315 °C. In the case of `O=S(=O)(c1ccc(Cl)cc1)N1CCCC1c1ccc(C(F)(F)F)cc1` (racemic), the melting point stood at 107 °C. The result for `CCOC(=O)C1=C(C)NC(c2cscn2)=NC1c1ccc(O)cc1` (configuration not stated) reads 213 to 216 °C. Next, `COC(=O)C1Cc2sc(N)c(C(=O)c3ccccc3Cl)c2C1` (configuration not stated): 120 to 125 °C; `COC(=O)CCc1sc(NC(=O)C[C@H]2O[C@H](c3cccc(OC)c3OC)c3cc(Cl)ccc3N(CC(C)(C)COC(C)=O)C2=O)nc1-c1ccccc1`: 168 °C; `C=CCOC(=O)NCc1noc([C@H](CS)NC(=O)OC(C)(C)C)n1`: 55 to 58 °C. Next, `Nc1cc(CO)cc([N+](=O)[O-])c1-c1ccc(O)cc1`: 158 °C; `CN(C)CCNS(=O)(=O)c1cccc([N+](=O)[O-])c1C(=O)O`: 193 °C.

For `O=C(COc1ccc(Cl)cc1)CS(=O)(=O)C(c1ccc(Cl)cc1)c1ccc(Cl)cc1`, the melting point fell in the range of 105 to 107 °C. The result for `Cc1cc(-c2ccc(Cl)c(OC3SCC(O)C(O)C3O)c2)ccn1` (configuration not stated) reads 137 °C; that for `c1cnc(NCc2ccc(-c3n[nH]c4c3Cc3ccccc3-4)s2)nc1`, 232 to 233 °C. For `CC12C=CC(=O)C=C1CCC1C2C(=O)CC2(C)C(SCc3ccc(Cl)cc3)CCC12` (configuration not stated), the melting point lay in the range of 176 to 180 °C.

`O=C(O)CCCn1ccnc1`: the melting point lay within 125 to 126 °C. Regarding `COc1ccc2c(c1)CCCCN2C(=O)Nc1cccc(C(F)(F)F)c1`, the melting point was 108 °C. `Cc1cc(C(C)(C)C)cc(C)c1S(F)(F)F` gave a melting point of 59.1 °C. Next, `CC(=O)Nc1nc(CCc2ccc(NC(NC(=O)OC(C)(C)C)NC(=O)OC(C)(C)C)cc2)cs1`: 276 °C. The result for `COC(=O)C1(S(=O)(=O)N2CC=C(c3ccc(Br)c(C)c3)CC2)CCOCC1` reads 128 to 130 °C.

As to `COc1ccc2c(c1)C13CCN(CC4CC4)C(C2)C1(Cc1ccccc1)CCC1(C3)OCCO1` (configuration not stated), the melting point lay in the range of 165 to 167 °C. The result for `Oc1cc(-c2ccccc2)on1` reads 150 to 151 °C; that for `CC(C)(C)C1=CC(c2cccc([N+](=O)[O-])c2)C2=C(CCCC2=O)N1` (configuration not stated), 180 to 182 °C.

In turn, `CCOC(=O)c1nc2cc(F)ccc2nc1CC` displayed a melting point of 42 to 45 °C. Consider `Nc1ncccc1-c1nc2cc(Br)cnc2n1-c1ccc(NC(=O)c2ccccc2)cc1`, for which the melting point was 242 to 244 °C. Next, `CCOC(=O)Cc1nnc(-c2cc3cccc(N(C)S(=O)(=O)c4cccs4)c3[nH]2)s1`: 201 to 202 °C; `O=C(O)c1ncsc1S`: 156 to 157 °C; `N#Cc1cnn2c(C(F)(F)F)cc(-c3ccc(F)c(C(F)(F)F)c3)nc12`: 204 °C. The result for `C[C@@H]1Cc2ccsc2[C@H](C)N1CCNC(=O)c1cccs1` (relative stereo) reads 111 to 113 °C.
